Source: US10766882B2, “1,2-naphthoquinone based derivative and method of preparing the same” (YUNGJIN PHARM. CO., LTD., priority 2013, dated 2020)

Columns and labels:
NQO1 protein = NQO1 protein (Homo sapiens, UniProt P15559); assay: NQO1 activity measurement (cytochrome C reduction); assay type: biochemical; details: 5 ng NQO1 protein, 200 μM NADH, 77 μM cytochrome C, 37° C., absorbance 550 nm for 10 minutes
C57BL/6J Lep ob/ob mice = assay: Weight loss effects in obese mice (ob/ob); assay type: in vivo; details: 100 mg/kg oral, vs 0.1% SLS controls
Method: 10 week-old C57BL/6J Lep ob/ob mice having genetic obesity characteristics available from ORIENTBIO were prepared. Two mice were raised in each polycarbonate breeding cage (200 W×260 L×130H (mm), Three-shine) in which temperature was 20 to 24° C., relative humidity was 35 to 65%, illuminance was 150 to 300 lux, night and day were 12 hours, and exhaust was performed at 10 to 15 air changes per hour. As a feed, low fat diet (11.9 kcal % fat, 5053, Labdiet) manufactured by ORIENTBIO was used. The feed was contained in a feeder and free intake was allowed. As drinking water, water, which was contained in a 250 mL polycarbonate based bottle, purified through a filter and a sterilizer was used and free intake was allowed.
The compound according to Example 1 synthesized in the present invention was orally administered to three C57BL/6J Lep ob/ob mice in amounts of 40 mg/kg, 80 mg/kg, and 120 mg/kg, respectively, once every day for two weeks. For administration, a disposable syringe fitted with a sonde for oral administration was used and 10 ml/kg of the compound was orally administered into the stomach. As controls, three C57BL/6J Lep ob/ob mice were administered 0.1% sodium lauryl sulfate (SLS) in an amount of 120 mg/kg in the same manner as described above. After administration, a time-dependent weight increase ratio, weight change, and intake amount were measured and results are illustrated in FIG. 1 below.
Weights of the experimental animals were measured immediately before administration of a test material and seven times a week from an administration initiation day to a test termination day. Increased total weights were calculated by subtracting weights measured on an experiment initiation day from weights measured one day before an experiment termination day. Food intake amounts were calculated by measuring feed supply amounts and remaining amounts twice a week from an initiation day of test material administration to a test termination day for each individual. […]
(§1) Experiments were performed under the same conditions as in Experimental Example 3-1 except that 15 week-old C57BL/6J Lep ob/ob mice having genetic obesity characteristics available from ORIENTBIO were prepared, the compounds according to Examples 5 and 6 were administered to three C57BL/6J Lep ob/ob mice in an amount of 150 mg/kg, 150 mg/kg of 0.1% SLS was administered to each of three C57BL/6J Lep ob/ob mice as controls, and experiments were performed for a total of one week. Weight increase ratios, weight change, and intake amounts depending on administration time were measured and results are illustrated in FIG. 5 below.
as §1, with “that 10” for “that 15”, “Examples 8, 9,” for “Examples 5”, “and 12” for “and 6”, “FIG. 6” for “FIG. 5”
Experiments were performed under the same conditions as in Experimental Example 3-1 except that 6 week-old C57BL/6J Lep ob/ob mice having genetic obesity characteristics available from ORIENTBIO were prepared, the compounds according to Examples 17, 18, 22, and 23 were administered to three C57BL/6J Lep ob/ob mice in an amount of 100 mg/kg, 100 mg/kg of 0.1% SLS was administered to each of three C57BL/6J Lep ob/ob mice as controls, and experiments were performed for a total of one week. Weight increase ratios, weight change, and intake amounts depending on administration time were measured and results are illustrated in FIG. 10 below. […]

Cells = assay: Measurement of lactate change amount within cells; assay type: cell-based; details: PCA extract of cells, lactate measured from supernatant (Megazyme, K-LATE)
Method: Cells were treated with 400 μl of 6% PCA, and then collected and extracted. Centrifugation (13,000 rpm, 10 min) was performed. A precipitate was dried using a Speed-Vac and then a weight of dried precipitate was measured. A supernatant was neutralized using 400 μl of 1 M KOH and a final volume thereof was adjusted to 1 ml using 0.33 M KH2PO4/K2HPO4, pH 7.5. Centrifugation (13,000 rpm, 10 min) was performed and the amount of lactate was measured from a supernatant (Megazyme, K-LATE).

[1] = Exp. Ex. 3-12, FIG. 15: 6 week-old ob/ob mice, two weeks
[2] = Exp. Ex. 3-10, FIG. 13: 6 week-old ob/ob mice, two weeks
[3] = Exp. Ex. 3-11, FIG. 14: 6.5 week-old ob/ob mice, one week
[4] = Exp. Ex. 3-13, FIG. 16: 6 week-old ob/ob mice, one week

Sequence of NQO1 protein (P15559 whole entry, species assumed): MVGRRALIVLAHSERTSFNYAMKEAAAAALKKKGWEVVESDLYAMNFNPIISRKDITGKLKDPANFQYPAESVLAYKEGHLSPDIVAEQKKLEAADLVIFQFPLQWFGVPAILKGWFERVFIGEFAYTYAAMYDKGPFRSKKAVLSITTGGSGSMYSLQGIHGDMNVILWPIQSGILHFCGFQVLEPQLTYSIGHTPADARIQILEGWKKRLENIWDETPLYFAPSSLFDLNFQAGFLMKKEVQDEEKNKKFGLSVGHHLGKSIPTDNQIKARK

SMILES	NQO1 activity (5 μM, [nmol cytochrome C reduced/min/μg protein]) (NQO1 protein)	intake amount (C57BL/6J Lep ob/ob mice; [1])	weight change (C57BL/6J Lep ob/ob mice; [1])	weight increase ratio (C57BL/6J Lep ob/ob mice; [1])	Lactate change amount within cells (nmol/mg cell) (Cells)	intake amount (C57BL/6J Lep ob/ob mice; [2])	weight change (C57BL/6J Lep ob/ob mice; [2])	weight increase ratio (C57BL/6J Lep ob/ob mice; [2])	intake amount (C57BL/6J Lep ob/ob mice; [3])	weight change (C57BL/6J Lep ob/ob mice; [3])	weight increase ratio (C57BL/6J Lep ob/ob mice; [3])	intake amount (C57BL/6J Lep ob/ob mice; [4])	weight change (C57BL/6J Lep ob/ob mice; [4])	weight increase ratio (C57BL/6J Lep ob/ob mice; [4])
CC(C)c1nc2c(n1Cc1ccc(F)cc1)C(=O)C(=O)c1ccccc1-2 [Example 33]	152.5 nmol cytochrome C reduced/min/μg protein	significantly decreased in some sections	significantly decreased in some sections	significantly decreased in some sections	4.7									
CC(C)c1nc2c(n1C)C(=O)C(=O)c1ccccc1-2 [Example 35]	190.3 nmol cytochrome C reduced/min/μg protein	significantly decreased in some sections	significantly decreased in some sections	significantly decreased in some sections	8.1	significantly decreased in some sections	significantly decreased in some sections	significantly decreased in some sections						
CCc1nc2c(n1C)C(=O)C(=O)c1ccccc1-2 [Example 38, 2-ethyl-3-methyl-3H-naphtho[2,1-d]imidazole-4,5-dione]	142.1 nmol cytochrome C reduced/min/μg protein				5.2				significantly decreased in some sections	significantly decreased in some sections	significantly decreased in some sections			
CCc1nc2c(n1C)C(=O)C(=O)c1cc(F)ccc1-2 [Example 41, 2-ethyl-7-fluoro-3-methyl-3H-naphtho[2,1-d]imidazole-4,5-dione]	148.4 nmol cytochrome C reduced/min/μg protein				7.2							significantly decreased in some sections	significantly decreased in some sections	significantly decreased in some sections
CCc1nc2c([nH]1)C(=O)C(=O)c1cc(Cl)ccc1-2 [Example 45, 7-chloro-2-ethyl-3H-naphtho[2,1-d]imidazole-4,5-dione]	188.6 nmol cytochrome C reduced/min/μg protein				5.7							significantly decreased in some sections	significantly decreased in some sections	significantly decreased in some sections
Cc1nc2c(n1C)C(=O)C(=O)c1ccccc1-2 [Example 96]	21.4 nmol cytochrome C reduced/min/μg protein				5.7				significantly decreased in some sections	significantly decreased in some sections	significantly decreased in some sections			
